Converted amounts (≈) assume the structure as drawn.
Tests used:
Escherichia coli NIHTC-2 = assay: MIC, agar dilution method, pH 7.2; type: cell-based; conditions: Escherichia coli, NIHTC2, pH 7.2, read-out: Minimum inhibition concentration (MIC)
Description: (§1) Measurement was carried out according to the agar dilution method, using a medium of pH 8.0, or the Japanese Antibiotic Medicament Standard, using a medium of pH 7.2 Units are in mcg/ml.

[1] = tested on: Eschericihia coli GN2411-5; assay: MIC, agar dilution method, pH 7.2; type: cell-based; conditions: Escherichia coli, GN2411, pH 7.2, read-out: Minimum inhibition concentration (MIC)
Description: as §1

[2] = tested on: Klebsiella pneumoniae KY4274; assay: MIC, agar dilution method, pH 7.2; type: cell-based; conditions: Klebsiella pneumoniae, KY4274, pH 7.2, read-out: Minimum inhibition concentration (MIC)
Description: as §1

Proteus vulgaris JJ = assay: MIC, agar dilution method, pH 7.2; type: cell-based; conditions: Proteus vulgaris, pH 7.2, read-out: Minimum inhibition concentration (MIC)
Description: as §1

[3] = tested on: Pseudomonas aeruginosa BMH# 1; assay: MIC, agar dilution method, pH 7.2; type: cell-based; conditions: Pseudomonas aeruginosa, pH 7.2, read-out: Minimum inhibition concentration (MIC)
Description: as §1

[4] = tested on: Pseudomonas aeruginosa UCLA 4184; assay: MIC, agar dilution method, pH 7.2; type: cell-based; conditions: Pseudomonas aeruginosa, UCLA4184, pH 7.2, read-out: Minimum inhibition concentration (MIC)
Description: as §1

[5] = tested on: Salmonella enteritidis G-14; assay: MIC, agar dilution method, pH 7.2; type: cell-based; conditions: Salmonella enterica, ENTERITIDIS, pH 7.2, read-out: Minimum inhibition concentration (MIC)
Description: as §1

Shigella sonnei ATCC9290 = assay: MIC, agar dilution method, pH 7.2; type: cell-based; conditions: read-out: Minimum inhibition concentration (MIC)
Description: as §1

[6] = tested on: Staphylococcus aureus 209-P; assay: MIC, agar dilution method, pH 7.2; type: cell-based; conditions: Staphylococcus aureus, 209P, pH 7.2, read-out: Minimum inhibition concentration (MIC)
Description: as §1

[7] = tested on: Staphylococcus aureus Smith (A); assay: MIC, agar dilution method, pH 7.2; type: cell-based; conditions: Staphylococcus aureus, pH 7.2, read-out: Minimum inhibition concentration (MIC)
Description: as §1

[8] = tested on: Staphylococcus a ureus 226; assay: MIC, agar dilution method, pH 7.2; type: cell-based, Staphylococcus aureus; conditions: pH 7.2, read-out: Minimum inhibition concentration (MIC)
Description: as §1

[9] = tested on: Escherichia coli 57R/W677; assay: MIC, agar dilution method, pH 7.2; type: cell-based; conditions: 57R/W677, pH 7.2, read-out: Minimum inhibition concentration (MIC)
Description: as §1
(§2) **1: gentamicin, producing adenylsynthetase.

Escherichia coli 76-2 = assay: MIC, agar dilution method, pH 7.2; type: cell-based; conditions: Escherichia coli, 762, pH 7.2, read-out: Minimum inhibition concentration (MIC)
Description: as §1, §2

[10] = tested on: Escherichia coli R12 Z-338; assay: MIC, agar dilution method, pH 7.2; type: cell-based; conditions: R12Z338, pH 7.2, read-out: Minimum inhibition concentration (MIC)
Description: as §1, §2

[11] = tested on: Klebsiella pneumoniae 3020 Y-60; assay: MIC, agar dilution method, pH 7.2; type: cell-based; conditions: Klebsiella pneumoniae, 3020Y60, pH 7.2, read-out: Minimum inhibition concentration (MIC)
Description: as §1, §2

[12] = tested on: Escherichia coli R18 KY8321; assay: MIC, agar dilution method, pH 7.2; type: cell-based; conditions: R18KY8321, E. coli R18 KY8321, 2**: gentamicin, producing adenylsynthetase and neomycin phosphotransferase type II, read-out: Minimum inhibition concentration (MIC)
Description: as §1
2: gentamicin, producing adenylsynthetase and neomycin phosphotransferase

[13] = tested on: Escherichia coli R17 Z343; assay: MIC, agar dilution method, pH 7.2; type: cell-based; conditions: R17Z343, pH 7.2, read-out: Minimum inhibition concentration (MIC)
Description: as §1
(§3) 3: kanamycin, producing acetyltransferase.

[14] = tested on: Pseudomonas aeruginosa R9 KY8516; assay: MIC, agar dilution method, pH 7.2; type: cell-based; conditions: R9KY8516, pH 7.2, read-out: Minimum inhibition concentration (MIC)
Description: as §1, §3

[15] = tested on: Escherichia coli R20 KY8349; assay: MIC, agar dilution method, pH 7.2; type: cell-based; conditions: R20KY8349, pH 7.2, E. coli R20 KY8349, 5**: neomycin, producing phosphotransferase type I, read-out: Minimum inhibition concentration (MIC)
Description: as §1
5: neomycin, producing phosphotransferase type I.

[16] = tested on: Pseudomonas aeruginosa R5 KY8512; assay: MIC, agar dilution method, pH 7.2; type: cell-based; conditions: R5KY8512, pH 7.2, read-out: Minimum inhibition concentration (MIC)
Description: as §1
6: neomycin, producing phosphotransferase type I and type II.

Providencia sp 164 = assay: MIC, agar dilution method, pH 7.2; type: cell-based; conditions: Providencia, 164, pH 7.2, read-out: Minimum inhibition concentration (MIC)
Description: as §1
7: gentamicin, producing acetyltransferase type II.

[17] = tested on: Staphylococcus aureus KY4279 ATCC6538P; assay: MIC, agar dilution method, pH 8.0; type: cell-based; conditions: pH 8.0, Staphylococcus aureus KY4279, read-out: Minimum inhibition concentration (MIC), SA
Description: as §1
S.A.: Staphylococcus aureus KY4279 ATCC6538P

Bacillus subtilis KY4273 = assay: MIC, agar dilution method, pH 8.0; type: cell-based; conditions: pH 8.0; Bacillus subtilis KY4273; read-out: Minimum inhibition concentration (MIC), BS
Description: as §1
B.S.: Bacillus subtilis KY4273

[18] = tested on: Eschericia coli KY4271 ATCC26; assay: MIC, agar dilution method, pH 8.0; type: cell-based; conditions: Escherichia coli, ATCC26; pH 8.0; E. coli KY4271; read-out: Minimum inhibition concentration (MIC), EC
Description: as §1
E.C.: Eschericia coli KY4271 ATCC26

[19] = tested on: Proteus vulgaris KY4277 ATCC6897; assay: MIC, agar dilution method, pH 8.0; type: cell-based; conditions: ATCC6897; pH 8.0; Proteus vulgaris KY4277; read-out: Minimum inhibition concentration (MIC), PV
Description: as §1

[20] = tested on: Shigella sonnei KY4281 ATCC9290; assay: MIC, agar dilution method, pH 8.0; type: cell-based; conditions: ATCC9290; pH 8.0; Shigella sonnei KY4281; read-out: Minimum inhibition concentration (MIC), SS
Description: as §1

[21] = tested on: Salmonella typhosa KY4278 ATCC9992; assay: MIC, agar dilution method, pH 8.0; type: cell-based; conditions: Salmonella enterica, pH 8, read-out: Minimum inhibition concentration (MIC), ST
Description: as §1
S.T.: Salmonella typhosa KY4278 ATCC9992

[22] = tested on: Klebsiella pneumoniae KY4275 ATCC10031; assay: MIC, agar dilution method, pH 8.0; type: cell-based; conditions: Klebsiella pneumoniae, ATCC10031, pH 8, read-out: Minimum inhibition concentration (MIC), KP
Description: as §1
K.P.: Klebsiella pneumoniae KY4275 ATCC10031.

CO[C@H]1[C@@H](O)[C@H](N)[C@@H](O[C@H]2O[C@H]([C@H](C)N)CC[C@H]2N)[C@H](O)[C@@H]1N(C)C(=O)CN [Compound 2, 4-N-glycylfortimicin B, reference compound]
MIC (Escherichia coli NIHTC-2): 3.12 µg/mL (≈ 7.69 µM)
MIC [1]: 6.25 µg/mL (≈ 15.4 µM)
MIC [2]: 3.12 µg/mL (≈ 7.69 µM)
MIC (Proteus vulgaris JJ): 3.12 µg/mL (≈ 7.69 µM)
MIC [3]: 12.5 µg/mL (≈ 30.8 µM)
MIC [4]: 25 µg/mL (≈ 61.7 µM)
MIC [5]: 6.25 µg/mL (≈ 15.4 µM)
MIC (Shigella sonnei ATCC9290): 6.25 µg/mL (≈ 15.4 µM)
MIC [6]: 0.78 µg/mL (≈ 1.92 µM)
MIC [7]: 0.78 µg/mL (≈ 1.92 µM)
MIC [8]: 0.78 µg/mL (≈ 1.92 µM)
MIC [9]: 12.5 µg/mL (≈ 30.8 µM)
MIC (Escherichia coli 76-2): 3.12 µg/mL (≈ 7.69 µM)
MIC [10]: 12.5 µg/mL (≈ 30.8 µM)
MIC [11]: 12.5 µg/mL (≈ 30.8 µM)
MIC [12]: 3.12 µg/mL (≈ 7.69 µM)
MIC [13]: 1.56 µg/mL (≈ 3.85 µM)
MIC [14]: 50 µg/mL (≈ 123 µM)
MIC [15]: 3.12 µg/mL (≈ 7.69 µM)
MIC [16]: 12.5 µg/mL (≈ 30.8 µM)
MIC (Providencia sp 164): 25 µg/mL (≈ 61.7 µM)
MIC [17]: 0.04 µg/mL (≈ 0.0986 µM)
MIC (Bacillus subtilis KY4273): 0.04 µg/mL (≈ 0.0986 µM)
MIC [18]: 0.16 µg/mL (≈ 0.395 µM)
MIC [19]: 0.32 µg/mL (≈ 0.789 µM)
MIC [20]: 0.63 µg/mL (≈ 1.55 µM)
MIC [21]: 0.16 µg/mL (≈ 0.395 µM)
MIC [22]: 0.16 µg/mL (≈ 0.395 µM)

Reference: patent US4220755A, “Fortimicin B derivatives and process for production thereof” (Abbott Laboratories, priority 1976, dated 1980)
